The values below come from US10017481B2, “Conformationally constrained, fully synthetic macrocyclic compounds” (POLYPHOR AG, priority 2012, dated 2018).

Assay [1] concerns the target T1, Thyrotropin-releasing hormone receptor (TRH receptor) (Homo sapiens, UniProt P34981).
T1 construct: expressed in transfected cells; host or cells: Ca2+ optimized hematopoietic cell lines (rat)
T1 sequence (P34981 1-398): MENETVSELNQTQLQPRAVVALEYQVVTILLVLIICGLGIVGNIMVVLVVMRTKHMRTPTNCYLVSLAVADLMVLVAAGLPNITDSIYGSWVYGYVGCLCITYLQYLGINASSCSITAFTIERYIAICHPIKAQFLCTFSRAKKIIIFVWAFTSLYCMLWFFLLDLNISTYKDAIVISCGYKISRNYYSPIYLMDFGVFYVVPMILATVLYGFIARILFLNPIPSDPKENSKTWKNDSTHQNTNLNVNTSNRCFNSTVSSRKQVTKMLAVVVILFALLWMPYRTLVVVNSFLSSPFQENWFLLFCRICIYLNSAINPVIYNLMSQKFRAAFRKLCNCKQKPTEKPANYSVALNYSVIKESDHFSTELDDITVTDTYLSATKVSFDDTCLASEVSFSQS
The experiment in a line: Ca2+ flux (FLIPR) assay, TRH receptor, agonist/antagonist mode. It is filed as cell-based. The conditions noted are these: antagonist mode. Here is the method:
Biological and Pharmacological Methods 1. Ca^2+ Flux Assays for the GPCRs Oxytocin Receptor (OT Receptor), Thyrotropin-Releasing Hormone Receptor (TRH Receptor) and Bombesin Receptor Subtype 3 (BB3 Receptor)
Assays were performed on a FLIPR^TETRA fluorometric imaging plate reader (Molecular Devices) with ScreenWorks Version 2 (Molecular Devices) as device operating and data analysis software.
Dose dependent agonist and antagonist activities were determined. Percentage activation and percentage inhibition values were determined.
Percentage activation was determined upon initial addition of the sample compounds followed by 10 minutes' incubation at 25° C. Following compound incubation, reference agonists were added at EC80 to determine percentage inhibition.
Reference agonists were purchased from reputable commercial vendors and prepared according to each ligand's specifications. All handling of ligands were done to ensure proper control throughout the experiments.
Example compounds were weighed on a Microbalance (Mettler MX5) and dissolved in 100% DMSO to a final concentration of 2.5 mM and subsequently diluted into the assay buffer.
The assay buffer was a supplemented HBSS (Hank's Balanced Salt Solution). HBSS was supplemented with 20 mM HEPES (4-(2-hydroxyethyl)-piperazin-1-ethansulfonic acid) and 2.5 mM Probenecid (Sigma P8761).
GPCR assays were performed using Ca^2+ optimized hematopoietic cell lines (rat) with cultures never exceeding 90% confluency. Cells were harvested and seeded (from cultures at less than 90% confluency) at 50000 cells/well for a 96-well plate (12500 cells/well for 384). After seeding, the assay plates were incubated for 45 minutes at room temperature. After room temperature incubation, the assay plates were incubated at 37° C. 5% CO2 for 24 hours prior to assaying.
All GPCR assays were performed using Fluo-8 Ca^2+ dye.
Ca^2+ dye was prepared at 1× dye concentration in GPCR assay buffer. After 24 hours of incubation, cells were washed with GPCR assay buffer, and then Ca^2+-dye (100 μL/well) was added.
The plates were incubated for 90 minutes at 30° C. 5% CO2 prior to FLIPR assay.
Compound plates were prepared to add 50 μL/well during the agonist assay mode. During the FLIPR assay, 50 μL/well from the compound plate was diluted 3-fold into the existing 100 μL/well from the dye loading step. Therefore all compounds were prepared as 3× the final concentration desired in the assay.
After completion of the first single addition assay run, assay plate was removed from the FLIPR Tetra and placed at 25° C. for 7 minutes before antagonist assay.
Using the EC80 values determined during the agonist assay, all pre-incubated sample compound and reference antagonist (if applicable) wells were stimulated at the EC80 of the reference agonist. As reference ligands for these assays their obvious natural ligands oxytocin (OT), thyrotropin-releasing hormone (TRH) and bombesin (6-14) [BN(6-14)] were used.
After the addition of the reference agonist fluorescence was monitored for 180 sec using FLIPR Tetra.
From the FLIPR data, with negative control correction enabled, the maximum statistic for each well was exported and percentage activation relative to Emax control was calculated.

A further assay concerns the target T2, Human recombinant ECE-1 (Homo sapiens, UniProt P42892).
T2 construct: host or cells: murine myeloma NS0 cells
T2 sequence (P42892 1-770): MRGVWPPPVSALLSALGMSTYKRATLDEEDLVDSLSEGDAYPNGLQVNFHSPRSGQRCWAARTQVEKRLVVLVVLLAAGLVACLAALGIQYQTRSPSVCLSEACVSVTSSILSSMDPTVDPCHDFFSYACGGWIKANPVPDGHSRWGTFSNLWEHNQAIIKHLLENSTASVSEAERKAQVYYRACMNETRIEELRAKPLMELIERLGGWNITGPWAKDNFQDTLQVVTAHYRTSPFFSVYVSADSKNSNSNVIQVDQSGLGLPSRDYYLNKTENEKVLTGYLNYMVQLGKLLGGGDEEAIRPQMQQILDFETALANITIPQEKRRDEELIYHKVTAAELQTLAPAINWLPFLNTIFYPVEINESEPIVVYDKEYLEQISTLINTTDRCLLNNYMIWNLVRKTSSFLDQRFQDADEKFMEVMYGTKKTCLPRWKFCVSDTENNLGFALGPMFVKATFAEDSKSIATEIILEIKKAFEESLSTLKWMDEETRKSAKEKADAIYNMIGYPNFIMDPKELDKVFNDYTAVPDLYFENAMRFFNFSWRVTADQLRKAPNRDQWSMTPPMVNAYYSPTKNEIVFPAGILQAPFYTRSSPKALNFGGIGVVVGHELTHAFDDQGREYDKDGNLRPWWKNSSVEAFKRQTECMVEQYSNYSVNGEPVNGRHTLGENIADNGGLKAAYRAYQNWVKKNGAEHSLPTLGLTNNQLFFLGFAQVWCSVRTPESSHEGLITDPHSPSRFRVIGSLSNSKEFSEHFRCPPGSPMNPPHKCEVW
The assay is described as follows: Endothelin converting enzyme-1 (ECE-1) enzyme assay. Format: biochemical. The conditions noted are these: for inhibition at 10 µM: read-out: % Inhibition at 10 μM. Here is the method: (§1) 2. Enzyme Assays for the Peptidase Endothelin Converting Enzyme-1 (ECE-1) and for the Cysteine Protease Cathepsin S (CatS)
(§2) The assays were performed according to provider's (Ricerca Biosciences, LLC) protocols which in turn are based on literature procedures (for ECE-1 cf.: O. Valdenaire et al., Eur. J. Biochem. 1999, 264, 341-349; F. D. Russell, A. P. Davenport, Circ. Res. 1999, 84, 891-896; and for CatS: G P Shi et al., J. Biol. Chem. 1992, 267, 7258-62; D Brömme et al., J. Biol. Chem. 1993 268, 4832-4838.).
Human recombinant ECE-1 expressed in murine myeloma cells NS0 is used. Test compound and/or vehicle is preincubated with 20 ng/ml enzyme in modified MES buffer pH 6.0 for 15 minutes at 25° C. The reaction is initiated by addition of […] Mca-[…]Dnp) for another 60 minutes' incubation period. Determination of the amount of Mca-Arg-Pro-Pro-Gly-Phe-Ser-Ala formed is read […] at 320 nm/405 nm. Compounds are screened at […].
IC50 values were determined by a non-linear, least squares regression analysis using MathIQ™ (ID Business Solutions Ltd., UK). […] The Hill coefficient (nH), defining the slope of the competitive binding curve, was calculated using MathIQ™.

Assay [2] has as its target T3, Human recombinant cathepsin S (Homo sapiens, UniProt P25774).
T3 construct: host or cells: murine myeloma NS0 cells
The assay is described as follows: Cathepsin S (CatS) enzyme assay. The note with it: for inhibition at 10 µM: 10 μM compound. Format: biochemical. Here is the method:
as §1, §2
Human recombinant cathepsin S expressed in a murine myeloma NS0 cells is used. Test compound and/or vehicle is preincubated with 0.1 μg/ml enzyme in modified acetate buffer pH 4.5 for 15 minutes at 25° C. The reaction is initiated by addition of […] Z-Leu-Arg-AMC for another 30 minutes' incubation period. Determination of the amount of AMC formed is read spectrofluorimetrically at 360 nm/465 nm. […]
IC50 values were determined by a non-linear, least squares regression analysis using MathIQ™ (ID Business Solutions Ltd., UK). Inhibition constants K were calculated according to the equation of Cheng and Prusoff (Y. Cheng, W. H. Prusoff, Biochem. Pharmacol. 1973, 22, 3099-3108) using the observed IC50 of the tested compound, the concentration of radioligand employed in the assay, and the historical values for the KD of the ligand. The Hill coefficient (nH), defining the slope of the competitive binding curve, was calculated using MathIQ™.

Structures are written as SMILES.

T3 sequence (P25774 115-331): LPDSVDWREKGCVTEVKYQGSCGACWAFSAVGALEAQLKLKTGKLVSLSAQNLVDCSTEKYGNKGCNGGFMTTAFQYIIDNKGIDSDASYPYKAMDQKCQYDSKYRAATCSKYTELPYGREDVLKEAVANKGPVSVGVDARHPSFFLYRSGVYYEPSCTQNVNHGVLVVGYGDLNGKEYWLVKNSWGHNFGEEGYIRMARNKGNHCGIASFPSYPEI

As a reminder, the IC50 is the concentration needed to halve the response being measured. The term inhibition denotes the percentage by which the read-out fell short of the control. On to `O=C(CN1CCCC1)N[C@H]1C[C@H]2COc3cccc(c3)-c3ccccc3C(=O)NCC[C@@H](NC(=O)Cc3cccc4ccccc34)C(=O)N2C1` [Ex. 7, N-[(12R,16S,18S)-8,13-dioxo-16-{[2-(1-pyrrolidinyl)acetyl]amino}-20-oxa-9,14-diazatetracyclo[19.3.1.0^2,7.0^14,18]pentacosa-1(25),2,4,6,21,23-hexaen-12-yl]-2-(1-naphthyl)acetamide], for which, in assay [1], the IC50 was found to be 1.4 µM and 10 µM produced 91% inhibition.

As for `CN1CCC[C@H](NC(=O)OCc2ccccc2)C(=O)N2C[C@@H](NC(=O)Cc3ccc4ccccc4c3)C[C@H]2COc2ccccc2-c2cccc(c2)C1=O` [Ex. 18, benzyl N-[(10S,12S,16S)-20-methyl-12-{[2-(2-naphthyl)acetyl]amino}-15,21-dioxo-8-oxa-14,20-diazatetracyclo[20.3.1.0^2,7.0^10,14]hexacosa-1(26),2,4,6,22,24-hexaen-16-yl]carbamate], at Human recombinant ECE-1, the IC50 is 3.01 µM and the inhibition at 10 µM stood at 98%. Moreover, in assay [2], the IC50 turned out to be 3.65 µM and the inhibition at 10 µM was 82%.

Take `CN1CCC[C@H](NC(=O)Cc2ccccc2)C(=O)N2C[C@@H](NC(=O)Cc3ccc4ccccc4c3)C[C@H]2COc2ccccc2-c2cccc(c2)C1=O` [Ex. 25, N-[(10S,12S,16S)-20-methyl-15,21-dioxo-16-[(2-phenylacetyl)amino]-8-oxa-14,20-diazatetracyclo[20.3.1.0^2,7.0^10,14]hexacosa-1(26),2,4,6,22,24-hexaen-12-yl]-2-(2-naphthyl)acetamide]: the figures for the IC50 (on Human recombinant ECE-1; in assay [2]) were 4.28 µM and 3.18 µM, respectively. The inhibition at 10 µM worked out at 97% on Human recombinant ECE-1 and 87% in assay [2].

For `CN1CCC[C@H](NC(=O)c2ccccc2)C(=O)N2C[C@@H](NC(=O)Cc3ccc4ccccc4c3)C[C@H]2COc2ccccc2-c2cccc(c2)C1=O` [Ex. 26, N-[(10S,12S,16S)-20-methyl-12-{[2-(2-naphthyl)acetyl]amino}-15,21-dioxo-8-oxa-14,20-diazatetracyclo[20.3.1.0^2,7.0^10,14]hexacosa-1(26),2,4,6,22,24-hexaen-16-yl]benzamide], on Human recombinant ECE-1, the IC50 turned out to be 4.07 µM and the inhibition at 10 µM was 98%. Moreover, in assay [2], the IC50 was 3.83 µM and the inhibition at 10 µM turned out to be 81%.

In assay [1], `O=C(Cn1ccnc1)N[C@H]1C[C@H]2COc3cccc(c3)-c3ccccc3C(=O)NCC[C@@H](NC(=O)Cc3cccc4ccccc34)C(=O)N2C1` [Ex. 332, 2-(1H-imidazol-1-yl)-N-[(12R,16S,18S)-12-{[2-(1-naphthyl)acetyl]amino}-8,13-dioxo-20-oxa-9,14-diazatetracyclo[19.3.1.0^2,7.0^14,18]pentacosa-1(25),2,4,6,21,23-hexaen-16-yl]acetamide] yielded an inhibition at 10 µM of 29%.

For the compound `O=C(Cc1cccc2ccccc12)N[C@@H]1CCNC(=O)c2ccccc2-c2cccc(c2)OC[C@@H]2C[C@H](NC(=O)Nc3cccnc3)CN2C1=O` [Ex. 333, N-[(12R,16S,18S)-8,13-dioxo-16-{[(3-pyridinylamino)carbonyl]amino}-20-oxa-9,14-diazatetracyclo[19.3.1.0^2,7.0^14,18]pentacosa-1(25),2,4,6,21,23-hexaen-12-yl]-2-(1-naphthyl)acetamide], 10 µM produced 35% inhibition in assay [1].

As for `O=C(CN1CCCC1)N[C@H]1C[C@H]2COc3cccc(c3)-c3ccccc3C(=O)NCC[C@@H](NC(=O)Cc3cccc(Cl)c3)C(=O)N2C1` [Ex. 334, 2-(3-chlorophenyl)-N-[(12R,16S,18S)-8,13-dioxo-16-{[2-(1-pyrrolidinyl)acetyl]amino}-20-oxa-9,14-diazatetracyclo[19.3.1.0^2,7.0^14,18]pentacosa-1(25),2,4,6,21,23-hexaen-12-yl]acetamide], in assay [1], the inhibition at 10 µM came out at 40%.

Compound `O=C(CN1CCCC1)N[C@H]1C[C@H]2COc3cccc(c3)-c3ccccc3C(=O)NCC[C@@H](NC(=O)CC3CCCCC3)C(=O)N2C1` [Ex. 335, 2-cyclohexyl-N-[(12R,16S,18S)-8,13-dioxo-16-{[2-(1-pyrrolidinyl)acetyl]amino}-20-oxa-9,14-diazatetracyclo[19.3.1.0^2,7.0^14,18]pentacosa-1(25),2,4,6,21,23-hexaen-12-yl]acetamide] gave an inhibition at 10 µM in assay [1] of 34%.

As to `O=C(CN1CCCC1)N[C@H]1C[C@H]2COc3cccc(c3)-c3ccccc3C(=O)NCC[C@@H](NC(=O)Nc3cccc4ccccc34)C(=O)N2C1` [Ex. 336, N-[(12R,16S,18S)-12-{[(1-naphthylamino)carbonyl]amino}-8,13-dioxo-20-oxa-9,14-diazatetracyclo[19.3.1.0^2,7.0^14,18]pentacosa-1(25),2,4,6,21,23-hexaen-16-yl]-2-(1-pyrrolidinyl)acetamide], in assay [1], the IC50 is 8.2 µM and the inhibition at 10 µM is 48%.
